Source: US7985755B2, “2,4-diaminoquinazolines for spinal muscular atrophy” (Families of Spinal Muscular Atrophy, priority 2006, dated 2011)

test system: SMN2 promoter; experiment: SMN2 promoter assay in NSC-34 cells (β-lactamase reporter); format: cell-based, mouse; details: Mus musculus, Table 3, SMN2 promoter driving β-lactamase, read-out: Promoter Assay EC50
From the text: All compounds were screened using an in vitro based SMN2 promoter assay. We used NSC-34 cells, a hybrid cell line between mouse spinal cord cells and mouse neuroblastoma cells. NSC-34 cells harbor an expression plasmid containing a 3.4 kb promoter fragment of the SMN2 gene driving β-lactamase expression.
[…] […] CCF2-AM diffuses across the plasma membrane and is converted into an active β-lactamase substrate by cytoplasmic esterase. […] The fold induction is proportional to the extent of β-lactamase produced and in turn proportional to SMN2 promoter activation for a given compound relative to vehicle (DMSO) control. […] These values are used to rank activities of the compounds and derive structure activity relationship.

`Nc1nc(N)c2c(OCC3CCN(c4ccccc4Cl)CC3)cccc2n1` [Example-163, 5-[1-(2-Chlorophenyl)piperidin-4-ylmethoxy]quinazoline-2,4-diamine] gave an EC50 of less than 1 µM.

same assay, conditions: Table 1, SMN2 promoter driving β-lactamase, 12 point dose curve, read-out: Promoter Assay EC50

First: CC(=O)Nc1nc(CN2CCC(COc3cccc4nc(N)nc(N)c34)CC2)cs1 [Example-094]
Second: Cn1ccnc1CN1CCC(COc2cccc3nc(N)nc(N)c23)CC1 [Example-152]
The EC50 of the first is lower: less than 1 µM for the first, 1 to 5 µM for the second. The first is the more potent here.

`Nc1nc(N)c2c(OCC3CCN(CC4COc5ccccc5O4)CC3)cccc2n1` (stereo not drawn) [Example-096] and `Nc1nc(N)c2c(OCC3CCN(Cc4ccccn4)CC3)cccc2n1` [Example-118] cannot be ordered by EC50: less than 1 µM for the first, less than 1 µM for the second.

`Nc1nc(N)c2c(OCC3CCN(Cc4ccc(OC(F)(F)F)cc4)CC3)cccc2n1` [Example-102] and `Nc1nc(N)c2c(OCC3CCN(Cc4ccc(C(F)(F)F)cc4)CC3)cccc2n1` [Example-123] cannot be ordered by EC50: less than 1 µM for the first, less than 1 µM for the second.

`Nc1nc(N)c2c(OCC3CCN(Cc4cccc(OC(F)(F)F)c4)CC3)cccc2n1` [Example-103] and `Nc1nc(N)c2c(OCC3CCN(Cc4cccc(C(F)(F)F)c4)CC3)cccc2n1` [Example-130] cannot be ordered by EC50: less than 1 µM for the first, less than 1 µM for the second.

`Nc1nc(N)c2c(OCC3CCN(Cc4ccc(Cl)cc4Cl)CC3)cccc2n1` [Example-104] and `Nc1nc(N)c2c(OCC3CCN(Cc4cc(Cl)cc(Cl)c4)CC3)cccc2n1` [Example-116] cannot be ordered by EC50: less than 1 µM for the first, less than 1 µM for the second.

`Nc1nc(N)c2c(OCC3CCN(C(=O)c4ccc5c(c4)OCO5)CC3)cccc2n1` [Example-105] and `Nc1nc(N)c2c(OCC3CCN(C(=O)c4ccc(Cl)c(Cl)c4)CC3)cccc2n1` [Example-109] cannot be ordered by EC50: less than 1 µM for the first, less than 1 µM for the second.

`Nc1nc(N)c2c(OCC3CCN(C(=O)c4c(F)cccc4F)CC3)cccc2n1` [Example-107] and `Nc1nc(N)c2c(OCC3CCN(C(=O)c4c(Cl)cccc4Cl)CC3)cccc2n1` [Example-108] cannot be ordered by EC50: less than 1 µM for the first, less than 1 µM for the second.

`Nc1nc(N)c2c(OCC3CCN(C(=O)c4cccc(C(F)(F)F)c4F)CC3)cccc2n1` [Example-110] and `Nc1nc(N)c2c(OCC3CCN(Cc4ccccc4C(F)(F)F)CC3)cccc2n1` [Example-131] cannot be ordered by EC50: less than 1 µM for the first, less than 1 µM for the second.

`Nc1nc(N)c2c(OCC3CCN(S(=O)(=O)c4ccc(F)cc4)CC3)cccc2n1` [Example-111] and `Nc1nc(N)c2c(OCC3CCN(Cc4ccc(F)cc4)CC3)cccc2n1` [Example-149] cannot be ordered by EC50: less than 1 µM for the first, less than 1 µM for the second.

`COc1cccc(CN2CCC(COc3cccc4nc(N)nc(N)c34)CC2)c1` [Example-114] and `Nc1nc(N)c2c(OCC3CCN(Cc4cccc(F)c4)CC3)cccc2n1` [Example-132] cannot be ordered by EC50: less than 1 µM for the first, less than 1 µM for the second.

`Nc1nc(N)c2c(OCC3CCN(Cc4ccncc4)CC3)cccc2n1` [Example-119] and `Nc1nc(N)c2c(OCC3CCN(Cc4ccsc4)CC3)cccc2n1` [Example-145] cannot be ordered by EC50: less than 1 µM for the first, less than 1 µM for the second.

`COc1ccc(CN2CCC(COc3cccc4nc(N)nc(N)c34)CC2)cc1F` [Example-122] and `COc1ccc(CN2CCC(COc3cccc4nc(N)nc(N)c34)CC2)cc1` [Example-124] cannot be ordered by EC50: less than 1 µM for the first, less than 1 µM for the second.

`CC(C)(C)c1ccc(CN2CCC(COc3cccc4nc(N)nc(N)c34)CC2)cc1` [Example-129] and `Cc1ccc(C)c(CN2CCC(COc3cccc4nc(N)nc(N)c34)CC2)c1` [Example-146] cannot be ordered by EC50: less than 1 µM for the first, less than 1 µM for the second.

`COc1cc(CN2CCC(COc3cccc4nc(N)nc(N)c34)CC2)cc(OC)c1` [Example-133] and `Nc1nc(N)c2c(OCC3CCN(Cc4cc(F)cc(F)c4)CC3)cccc2n1` [Example-137] cannot be ordered by EC50: less than 1 µM for the first, less than 1 µM for the second.

`Nc1nc(N)c2c(OCC3CCN(Cc4cccs4)CC3)cccc2n1` [Example-135] and `Nc1nc(N)c2c(OCC3CCN(Cc4cc(F)c(F)c(F)c4)CC3)cccc2n1` [Example-148] cannot be ordered by EC50: less than 1 µM for the first, less than 1 µM for the second.

same assay, conditions: Table 3, SMN2 promoter driving β-lactamase, read-out: Promoter Assay EC50

`COC(=O)c1cccc(CN2CCC(COc3cccc4nc(N)nc(N)c34)CC2)c1` [Example-156] and `COC(=O)c1ccc(CN2CCC(COc3cccc4nc(N)nc(N)c34)CC2)cc1` [Example-157] cannot be ordered by EC50: less than 1 µM for the first, less than 1 µM for the second.
